Experimental data as given in ChEMBL document CHEMBL5385847, “Design, synthesis and biological evaluation of a new class of 7H-pyrrolo[2,3-d]pyrimidine derivatives as Mps1 inhibitors for the treatment of breast cancer” (Eur J Med Chem, 2023).
Active and inactive are the calls of the source. The rule behind the calls is not given here.

Columns and labels:
4T1-Luc = assay: Induction of DNA damage in mouse 4T1-Luc cells xenografted in BALB/C mouse assessed as increase in gamma-H2AX level at 30 to 60 mg/kg, po qd treated for 15 days by IHC analysis; format: functional, organism-based; settings: dose 30-60 mg/kg, time 15.0 day
[1] = Toxicity in BALB/C mouse xenografted with mouse 4T1-Luc cells assessed as histological change in liver at 30 to 60 mg/kg, po qd treated for 15 days by H and E staining based analysis; format: organism-based; settings: in vivo, 360 h, dose 30-60 mg/kg, time 15 day
[2] = Toxicity in BALB/C mouse xenografted with mouse 4T1-Luc cells assessed as histological change in heart at 30 to 60 mg/kg, po qd treated for 15 days by H and E staining based analysis; format: organism-based; settings: in vivo, 360 h, dose 30-60 mg/kg, time 15 day
[3] = Toxicity in BALB/C mouse xenografted with mouse 4T1-Luc cells assessed as change in blood biochemical parameters at 30 to 60 mg/kg, po qd treated for 15 days; format: organism-based; settings: in vivo, 360 h, dose 30-60 mg/kg, time 15 day
[4] = Antitumor activity against mouse 4T1-Luc cells xenografted in BALB/C mouse assessed as reduction in mean tumor weight at 30 mg/kg, po qd treated for 15 days (reference value: 3.56 g); format: functional; settings: time 15 day
MCF7 [5] = assay: Induction of DNA damage in human MCF7 cells assessed as increase in gamma-H2AX level incubated for 2 hrs by Western blot analysis; format: functional, cell-based; settings: dose <= 3.0 µM
4T1 [6] = assay: Induction of apoptosis in 4T1 cells assessed as increase in cleaved PARP level upto 3 uM incubated for 48 hrs by Western blot analysis; format: functional, cell-based; settings: Mus musculus
MCF7 [7] = assay: Induction of apoptosis in human MCF7 cells assessed as increase in cleaved caspase-3 level upto 3 uM incubated for 48 hrs by Western blot analysis; format: functional, cell-based
4T1 [8] = assay: Induction of apoptosis in 4T1 cells assessed as necrotic cells at 5 uM incubated for 48 hrs by Annexin V-FITC/PI staining based flow cytometry (reference value: 0.20 %); format: functional, Mus musculus
4T1 [9] = assay: Induction of apoptosis in 4T1 cells assessed as late apoptotic cells at 5 uM incubated for 48 hrs by Annexin V-FITC/PI staining based flow cytometry (reference value: 1.73 %); format: functional, Mus musculus
4T1 [10] = assay: Induction of apoptosis in 4T1 cells assessed as early apoptotic cells at 1 uM incubated for 48 hrs by Annexin V-FITC/PI staining based flow cytometry (reference value: 0.32 %); format: functional, Mus musculus
4T1 [11] = assay: Induction of apoptosis in 4T1 cells assessed as necrotic cells at 0.5 uM incubated for 48 hrs by Annexin V-FITC/PI staining based flow cytometry (reference value: 0.20 %); format: functional, Mus musculus
MCF7 [12] = assay: Induction of apoptosis in human MCF7 cells assessed as necrotic cells at 5 uM incubated for 48 hrs by Annexin V-FITC/PI staining based flow cytometry (reference value: 0.03 %); format: functional
MCF7 [13] = assay: Induction of apoptosis in human MCF7 cells assessed as late apoptotic cells at 5 uM incubated for 48 hrs by Annexin V-FITC/PI staining based flow cytometry (reference value: 0.63 %); format: functional
MCF7 [14] = assay: Induction of cell cycle arrest in human MCF7 cells at G2/M phase assessed as decrease in CDK1 level incubated for 24 hrs by Western blot analysis; format: functional, cell-based; settings: dose <= 3.0 µM
MCF7 [15] = assay: Antiproliferative activity against human MCF7 cells upto 5 uM measured after 14 days by colony formation assay; format: functional, cell-based; settings: time 14.0 day
Vero = assay: Antiproliferative activity against African green monkey Vero cells assessed as inhibition of cell viability by MTT assay; format: toxicity, cell-based; settings: chlorocebus sabaeus
AGS [16] = assay: Antiproliferative activity against human AGS cells assessed as inhibition of cell viability upto 10 uM incubated for 72 hrs by MTT assay; format: functional, cell-based
HEY = assay: Antiproliferative activity against human HEY cells assessed as inhibition of cell viability upto 10 uM incubated for 72 hrs by MTT assay; format: functional, cell-based
4T1 [17] = assay: Antiproliferative activity against 4T1 cells assessed as inhibition of cell viability upto 10 uM by MTT assay; format: functional, cell-based; settings: Mus musculus, time 24-72 hrs, TDE = time-dependent effect
AGS [18] = assay: Antiproliferative activity against human AGS cells assessed as inhibition of cell viability by MTT assay; format: functional, cell-based
HCT-116 = assay: Antiproliferative activity against human HCT-116 cells assessed as inhibition of cell viability by MTT assay; format: functional, cell-based
[19] = biological target: T1, Dual specificity protein kinase TTK (Homo sapiens) (UniProt P33981); assay: Inhibition of human Mps1 at 0.1 uM by KINOMEscan assay relative to control
T1 sequence (whole entry): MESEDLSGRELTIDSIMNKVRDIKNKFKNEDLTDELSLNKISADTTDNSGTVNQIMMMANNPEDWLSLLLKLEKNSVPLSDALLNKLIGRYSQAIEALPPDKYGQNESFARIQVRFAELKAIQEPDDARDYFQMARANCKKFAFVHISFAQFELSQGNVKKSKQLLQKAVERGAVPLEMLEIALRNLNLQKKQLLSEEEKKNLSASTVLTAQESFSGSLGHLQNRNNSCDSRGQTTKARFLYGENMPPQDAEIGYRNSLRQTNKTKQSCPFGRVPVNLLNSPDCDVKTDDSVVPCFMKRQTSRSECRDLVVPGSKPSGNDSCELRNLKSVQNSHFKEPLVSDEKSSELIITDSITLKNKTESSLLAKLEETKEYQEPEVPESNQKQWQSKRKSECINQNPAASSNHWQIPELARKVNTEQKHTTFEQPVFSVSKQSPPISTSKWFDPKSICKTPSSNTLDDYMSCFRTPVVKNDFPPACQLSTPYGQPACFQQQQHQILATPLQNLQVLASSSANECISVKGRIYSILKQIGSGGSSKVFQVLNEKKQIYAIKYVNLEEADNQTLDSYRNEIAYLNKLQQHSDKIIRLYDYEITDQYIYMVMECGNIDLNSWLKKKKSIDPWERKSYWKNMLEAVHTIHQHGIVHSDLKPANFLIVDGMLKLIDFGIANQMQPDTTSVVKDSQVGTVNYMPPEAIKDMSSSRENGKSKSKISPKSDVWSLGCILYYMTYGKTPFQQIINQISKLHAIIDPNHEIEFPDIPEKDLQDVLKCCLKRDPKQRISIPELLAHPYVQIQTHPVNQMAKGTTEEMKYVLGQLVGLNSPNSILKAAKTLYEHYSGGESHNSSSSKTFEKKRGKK

[20] = biological target: ALK tyrosine kinase receptor (Homo sapiens) (UniProt Q9UM73); assay: Inhibition of human ALK at 0.1 uM by KINOMEscan assay relative to control
Sequence of ALK tyrosine kinase receptor (Homo sapiens) (Q9UM73 19-1620 limits assumed): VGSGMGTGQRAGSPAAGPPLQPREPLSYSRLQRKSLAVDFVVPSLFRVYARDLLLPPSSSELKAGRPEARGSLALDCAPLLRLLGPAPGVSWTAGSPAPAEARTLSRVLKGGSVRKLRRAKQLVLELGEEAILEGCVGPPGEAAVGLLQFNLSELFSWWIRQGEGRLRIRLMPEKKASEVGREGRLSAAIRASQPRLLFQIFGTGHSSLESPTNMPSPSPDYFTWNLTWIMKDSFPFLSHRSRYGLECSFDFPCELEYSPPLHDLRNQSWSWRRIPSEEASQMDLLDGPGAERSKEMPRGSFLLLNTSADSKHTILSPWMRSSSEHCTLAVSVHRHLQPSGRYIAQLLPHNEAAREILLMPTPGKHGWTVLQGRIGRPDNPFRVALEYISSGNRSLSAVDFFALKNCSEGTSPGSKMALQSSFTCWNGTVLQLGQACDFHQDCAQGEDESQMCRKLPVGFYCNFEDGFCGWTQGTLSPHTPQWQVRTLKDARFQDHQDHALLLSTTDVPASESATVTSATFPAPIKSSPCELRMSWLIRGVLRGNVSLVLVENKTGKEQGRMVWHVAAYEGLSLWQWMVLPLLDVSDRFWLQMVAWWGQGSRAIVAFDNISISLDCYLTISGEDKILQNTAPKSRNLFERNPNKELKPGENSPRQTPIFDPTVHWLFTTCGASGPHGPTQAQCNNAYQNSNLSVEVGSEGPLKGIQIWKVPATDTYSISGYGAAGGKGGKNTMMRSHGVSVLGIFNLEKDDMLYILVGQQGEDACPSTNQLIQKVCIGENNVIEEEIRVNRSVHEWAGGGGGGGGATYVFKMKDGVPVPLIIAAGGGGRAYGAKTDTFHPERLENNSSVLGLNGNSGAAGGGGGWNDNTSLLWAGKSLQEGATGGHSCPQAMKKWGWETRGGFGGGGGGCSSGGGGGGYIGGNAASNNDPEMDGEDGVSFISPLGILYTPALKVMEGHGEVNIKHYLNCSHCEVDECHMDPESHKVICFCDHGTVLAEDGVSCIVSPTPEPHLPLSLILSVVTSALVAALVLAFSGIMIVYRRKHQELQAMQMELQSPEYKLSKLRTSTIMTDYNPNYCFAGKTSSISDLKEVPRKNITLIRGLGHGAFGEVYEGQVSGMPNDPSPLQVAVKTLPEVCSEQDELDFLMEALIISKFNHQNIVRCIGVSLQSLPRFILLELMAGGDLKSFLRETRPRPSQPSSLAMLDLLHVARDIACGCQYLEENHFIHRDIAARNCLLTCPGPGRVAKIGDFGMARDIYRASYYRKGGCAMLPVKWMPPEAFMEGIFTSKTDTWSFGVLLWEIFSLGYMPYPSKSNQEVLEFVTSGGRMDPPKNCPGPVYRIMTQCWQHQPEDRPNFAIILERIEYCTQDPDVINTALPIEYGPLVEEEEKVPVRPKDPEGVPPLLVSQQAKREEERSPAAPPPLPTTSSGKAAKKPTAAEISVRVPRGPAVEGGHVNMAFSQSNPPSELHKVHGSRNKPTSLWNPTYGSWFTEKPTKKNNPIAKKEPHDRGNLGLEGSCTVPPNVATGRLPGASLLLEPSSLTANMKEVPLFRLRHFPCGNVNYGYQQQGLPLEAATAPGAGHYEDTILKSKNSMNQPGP

[21] = biological target: Cytoplasmic tyrosine-protein kinase BMX (Homo sapiens) (UniProt P51813); assay: Inhibition of human Bmx at 0.1 uM by KINOMEscan assay relative to control
Sequence of Cytoplasmic tyrosine-protein kinase BMX (Homo sapiens) (P51813 whole entry): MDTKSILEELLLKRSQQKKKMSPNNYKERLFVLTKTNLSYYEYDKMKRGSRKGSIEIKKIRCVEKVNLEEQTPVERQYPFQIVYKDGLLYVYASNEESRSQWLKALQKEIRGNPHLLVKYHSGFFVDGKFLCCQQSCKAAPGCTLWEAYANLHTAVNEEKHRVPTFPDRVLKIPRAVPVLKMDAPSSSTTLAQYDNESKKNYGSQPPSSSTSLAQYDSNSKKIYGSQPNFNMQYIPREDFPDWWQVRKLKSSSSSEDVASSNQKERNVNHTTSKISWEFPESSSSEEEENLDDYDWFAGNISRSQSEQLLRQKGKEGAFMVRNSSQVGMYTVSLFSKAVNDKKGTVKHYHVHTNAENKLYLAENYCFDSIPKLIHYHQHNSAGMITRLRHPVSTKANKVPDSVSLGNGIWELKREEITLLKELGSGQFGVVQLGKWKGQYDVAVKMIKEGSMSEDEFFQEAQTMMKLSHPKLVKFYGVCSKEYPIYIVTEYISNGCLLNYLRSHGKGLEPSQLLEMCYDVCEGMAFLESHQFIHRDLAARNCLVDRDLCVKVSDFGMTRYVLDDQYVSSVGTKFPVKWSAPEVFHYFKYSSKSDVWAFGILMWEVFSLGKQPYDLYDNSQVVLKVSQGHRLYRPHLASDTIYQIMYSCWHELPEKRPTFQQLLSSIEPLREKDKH

[22] = biological target: Angiopoietin-1 receptor (Homo sapiens) (UniProt Q02763); assay: Inhibition of human Tie2 at 0.1 uM by KINOMEscan assay relative to control
Sequence of Angiopoietin-1 receptor (Homo sapiens) (Q02763 whole entry): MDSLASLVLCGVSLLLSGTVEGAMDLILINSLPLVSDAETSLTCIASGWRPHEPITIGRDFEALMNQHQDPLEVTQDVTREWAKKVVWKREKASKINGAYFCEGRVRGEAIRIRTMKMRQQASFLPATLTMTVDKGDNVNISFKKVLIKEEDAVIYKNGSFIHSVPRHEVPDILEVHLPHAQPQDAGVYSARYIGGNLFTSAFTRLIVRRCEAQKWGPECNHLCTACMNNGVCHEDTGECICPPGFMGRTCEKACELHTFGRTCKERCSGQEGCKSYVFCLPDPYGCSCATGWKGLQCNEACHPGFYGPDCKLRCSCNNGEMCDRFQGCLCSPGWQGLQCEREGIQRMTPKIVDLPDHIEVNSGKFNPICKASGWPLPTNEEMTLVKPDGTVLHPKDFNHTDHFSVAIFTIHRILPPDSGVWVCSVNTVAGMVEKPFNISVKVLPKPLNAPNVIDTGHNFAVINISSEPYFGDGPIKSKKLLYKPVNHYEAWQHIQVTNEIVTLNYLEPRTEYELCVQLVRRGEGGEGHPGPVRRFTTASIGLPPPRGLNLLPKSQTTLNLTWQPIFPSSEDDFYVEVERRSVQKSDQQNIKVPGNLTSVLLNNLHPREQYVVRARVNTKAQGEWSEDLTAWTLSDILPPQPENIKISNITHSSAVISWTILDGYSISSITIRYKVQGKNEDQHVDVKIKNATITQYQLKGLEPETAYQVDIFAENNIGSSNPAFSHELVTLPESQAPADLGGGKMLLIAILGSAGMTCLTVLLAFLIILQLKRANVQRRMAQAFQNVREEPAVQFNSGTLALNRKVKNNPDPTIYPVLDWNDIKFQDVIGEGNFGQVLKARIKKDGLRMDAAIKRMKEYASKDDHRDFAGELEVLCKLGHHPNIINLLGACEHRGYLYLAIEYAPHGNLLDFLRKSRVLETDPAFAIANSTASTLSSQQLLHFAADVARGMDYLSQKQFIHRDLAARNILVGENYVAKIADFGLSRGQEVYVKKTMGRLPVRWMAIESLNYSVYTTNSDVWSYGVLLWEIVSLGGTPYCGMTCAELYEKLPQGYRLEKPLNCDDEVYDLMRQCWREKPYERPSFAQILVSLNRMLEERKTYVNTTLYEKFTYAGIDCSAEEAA

[23] = biological target: Tyrosine-protein kinase JAK2 (Homo sapiens) (UniProt O60674); assay: Inhibition of human JAK2 at 0.1 uM by KINOMEscan assay relative to control
Sequence of Tyrosine-protein kinase JAK2 (Homo sapiens) (O60674 whole entry): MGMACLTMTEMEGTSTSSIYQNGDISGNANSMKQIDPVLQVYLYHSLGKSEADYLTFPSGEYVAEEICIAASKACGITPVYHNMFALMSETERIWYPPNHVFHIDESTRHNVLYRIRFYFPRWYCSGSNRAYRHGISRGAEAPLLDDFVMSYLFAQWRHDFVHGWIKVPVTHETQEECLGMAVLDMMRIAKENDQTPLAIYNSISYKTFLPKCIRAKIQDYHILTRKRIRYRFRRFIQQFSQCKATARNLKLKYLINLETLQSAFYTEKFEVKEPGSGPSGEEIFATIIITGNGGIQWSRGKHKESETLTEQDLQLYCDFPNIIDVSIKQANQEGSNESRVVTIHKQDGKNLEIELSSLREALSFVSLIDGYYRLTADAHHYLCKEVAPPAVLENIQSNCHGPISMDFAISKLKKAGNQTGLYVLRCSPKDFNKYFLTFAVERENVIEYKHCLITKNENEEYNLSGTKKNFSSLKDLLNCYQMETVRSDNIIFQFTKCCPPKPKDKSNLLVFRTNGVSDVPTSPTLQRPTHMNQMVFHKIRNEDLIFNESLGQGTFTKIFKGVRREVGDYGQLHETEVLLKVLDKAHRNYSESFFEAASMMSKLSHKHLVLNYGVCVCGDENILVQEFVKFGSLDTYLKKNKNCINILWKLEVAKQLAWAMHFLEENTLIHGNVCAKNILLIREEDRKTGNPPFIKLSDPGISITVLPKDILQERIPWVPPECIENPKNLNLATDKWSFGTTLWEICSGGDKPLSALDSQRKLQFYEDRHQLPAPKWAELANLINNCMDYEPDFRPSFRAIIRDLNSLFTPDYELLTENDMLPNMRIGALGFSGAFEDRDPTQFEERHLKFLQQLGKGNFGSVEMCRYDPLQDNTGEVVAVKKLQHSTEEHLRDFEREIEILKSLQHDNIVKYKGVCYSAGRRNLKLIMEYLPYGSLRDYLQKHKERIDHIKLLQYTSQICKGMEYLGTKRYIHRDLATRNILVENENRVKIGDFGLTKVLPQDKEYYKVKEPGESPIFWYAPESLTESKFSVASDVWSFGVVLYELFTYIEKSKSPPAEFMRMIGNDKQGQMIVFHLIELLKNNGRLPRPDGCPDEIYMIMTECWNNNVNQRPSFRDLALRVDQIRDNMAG

[24] = biological target: ALK tyrosine kinase receptor (Homo sapiens) (UniProt Q9UM73); assay: Inhibition of human ALK at 1 uM by KINOMEscan assay relative to control

Structure (SMILES): CN1CCN(c2ccc(Nc3nc(-n4nc(N)c5ccccc54)c4cc[nH]c4n3)cc2)CC1
- Activity (4T1-Luc): Active
- Activity [1]: Non-Toxic
- Activity [2]: Non-Toxic
- Activity [3]: Non-Toxic
- Activity [4]: 1.4 g
- Activity (MCF7 [5]): Dose-Dependent Effect
- Activity (4T1 [6]): Active
- Activity (MCF7 [7]): Active
- Activity (4T1 [8]): 0.32%
- Activity (4T1 [9]): 20.66%
- Activity (4T1 [10]): 1.61%
- Activity (4T1 [11]): 0.7%
- Activity (MCF7 [12]): 0.38%
- Activity (MCF7 [13]): 17.53%
- Activity (MCF7 [14]): Dose-Dependent Effect
- Activity (MCF7 [15]): Active
- Activity (Vero): Non-Toxic
- inhibition (AGS [16]): Active
- inhibition (HEY): Active
- inhibition (4T1 [17]): Tde
- IC50 (AGS [18]): > 3000 nM
- IC50 (HCT-116): 1060 nM
- inhibition [19]: 87%
- inhibition [20]: 86%
- inhibition [21]: 55%
- inhibition [22]: 28%
- inhibition [23]: 65%
- inhibition [24]: 91%
